Experimental data: publication PMC10053710, “Influence of Lipidation Pattern of the KR12 Fragment of Peptide LL-37 on Its Antibacterial and Hemolytic Activities” (International Journal of Molecular Sciences, 2023)
Converted amounts (≈) assume the structure as drawn. “And” between values parts separate entries of the source, which are not always exact repeats. Identical values can stand only once. Where a SMILES comes first, the peptide text is derived from it. The star is where a group is joined. Octanoyl = CCCCCCCC(=O)*; X1 = CCCCCCC(CCCC)C(=O)*; X4 = O=C(/C=C/c1ccccc1)*; X3 = CCCCC(CC)C(=O)*; Butyryl = CCCC(=O)*

Legend:
S. aureus ATCC 12598 = format: cell-based, Staphylococcus aureus; conditions: ATCC 12598, 18 h
Experimental: (§1) Tests of the antibacterial activity were carried out as we just described. Briefly, for assays, the following strains of ESKAPE bacteria were chosen: Acinetobacter baumannii ATCC BAA-1605, Enterococcus faecium ATCC 700221, Klebsiella aerogenes ATCC 13048 (formerly Enterobacter aerogenes), Klebsiella pneumoniae ATCC 700603, and Pseudomonas aeruginosa ATCC 9027. Moreover, the reference strains of Staphylococcus aureus were used: S. aureus ATCC 25923, S. aureus ATCC 6538, S. aureus ATCC 33591 (MRSA), S. aureus ATCC 9144, and S. aureus ATCC 12598. Before experiments, all the strains were stored at −80 °C in Roti®-Store cryo vials (Carl Roth GmbH, Karlsruhe, Germany). To evaluate the activity of the compounds, bacteria were transferred into fresh Mueller–Hinton medium (Becton Dickinson, Warszawa, Poland) and incubated for 24 h at 37 °C. In the next step, bacterial inoculums were seeded on Mueller–Hinton agar plates (BioMaxima SA, Lublin, Poland) and incubated again for 24 h. The MIC values were determined using the broth microdilution method according to the Clinical and Laboratory Standards Institute Protocol. The initial inoculums of bacteria (0.5 × 10^5 colony forming units (CFU)/mL) prepared in Mueller–Hinton broth were exposed to the ranging concentrations of peptides (1–512 µg/mL). The experiments were conducted on 96-well microtiter plates, with a final volume of 100 µL. The inoculum densities were checked spectrophotometrically (Multiskan™ GO Microplate Spectrophotometer, Thermo Scientific, Waltham, MA, USA) at 600 nm. The results were read after incubation for 18 h at 37 °C. The MIC values were the lowest concentration at which a visible growth of microorganisms was inhibited. All experiments were conducted in triplicate. Moreover, positive (growth) and negative (sterility) controls were included.

S. aureus ATCC 9144 = format: cell-based, Staphylococcus aureus; conditions: ATCC 9144, 18 h
Experimental: as §1

S. aureus ATCC 25923 = format: cell-based, Staphylococcus aureus; conditions: ATCC 25923, 18 h
Experimental: as §1

[1] = test system: S. aureus ATCC 33591 (MRSA); format: cell-based, Staphylococcus aureus; conditions: ATCC 33591, 18 h
Experimental: as §1

S. aureus ATCC 6538 = format: cell-based, Staphylococcus aureus; conditions: ATCC 6538, 18 h
Experimental: as §1

[2] = test system: human red blood cells (hRBCs); experiment: Hemolysis assay; conditions: for MHC5 (minimum hemolytic concentration causing 5% hemolysis of hRBCs): 4% (v/v) erythrocytes in PBS, peptides 1–512 µg/mL, 1 h at 37 °C, hemoglobin at 540 nm
Experimental: To facilitate a comparison of hemolytic activity between the analogs, MHC5 values were determined. MHC5 is the minimum hemolytic concentration of the compounds that caused the 5% hemolysis of hRBCs.
Briefly, the fresh hRBCs with EDTA as anticoagulant were rinsed three times with PBS through centrifugation at 800× g for 10 min and resuspended in PBS. The serial dilution of peptides (1–512 µg/mL) was prepared in PBS on 96-well plates. Then, the stock RBCs solution was added to the plates to reach a final volume of 100 µL with a 4% concentration of erythrocytes (v/v). The control wells for 0 (RBCs in PBS) and 100% (RBCs in 1% Triton-X 100) hemolysis were also prepared. Then, the plates were incubated for 1 h at 37 °C and centrifuged at 800× g for 10 min at 4 °C (Sorvall ST 16R Centrifuge, Thermo Scientific, Waltham, MA, USA). After centrifugation, the supernatant was carefully transferred to new microtiter plates and the release of hemoglobin was measured at 540 nm (Multiskan™ GO Microplate Spectrophotometer, Thermo Scientific, Waltham, MA, USA). The percentage of hemolysis was calculated based on wells with 100% hemolysis.

[3] = test system: Klebsiella aerogenes ATCC 13048; format: cell-based; conditions: ATCC 13048, 18 h
Experimental: as §1

[4] = test system: Enterococcus faecium ATCC 700221; format: cell-based; conditions: ATCC 700221, 18 h
Experimental: as §1

[5] = test system: Pseudomonas aeruginosa ATCC 9027; format: cell-based; conditions: ATCC 9027, 18 h
Experimental: as §1

[6] = test system: Klebsiella pneumoniae ATCC 700603; format: cell-based; conditions: ATCC 700603, 18 h
Experimental: as §1

[7] = 18 h
[8] = 100% = 1% Triton-X 100, ≥ means less than 5% hemolysis up to 512 µg/mL
[9] = fresh batch of blood (footnote a)

SMILES | MIC S. aureus 12598 (S. aureus ATCC 12598) | MIC S. aureus 9144 (S. aureus ATCC 9144) | MIC S. aureus 25923 (S. aureus ATCC 25923) | MIC S. aureus 33591 [1] | MIC S. aureus 6538 (S. aureus ATCC 6538) | MHC5 (minimum hemolytic concentration causing 5% hemolysis of hRBCs) [2, 8] | MIC K. aerogenes [3] | MIC E. faecium [4] | MIC P. aeruginosa [5] | MIC K. pneumoniae [6] | MIC A. baumannii [7] | Hemolytic effect over the studied concentration range ([2]; hRBCs, concentration range up to 512 µg/mL, significant = >5% hemolysis) | MHC5 (minimum hemolytic concentration causing 5% hemolysis of hRBCs) [2, 9]
CCCCCCCC(=O)NCCCC[C@H](NC(=O)[C@@H](NC(=O)[C@H](CCCNC(=N)N)NC(=O)[C@H](CCC(N)=O)NC(=O)[C@@H](NC(=O)[C@@H](NC(=O)[C@H](CCCNC(=N)N)NC(=O)[C@@H](N)CCCCN)[C@@H](C)CC)C(C)C)[C@@H](C)CC)C(=O)N[C@@H](CC(=O)O)C(=O)N[C@@H](Cc1ccccc1)C(=O)N[C@@H](CC(C)C)C(=O)N[C@@H](CCCNC(=N)N)C(N)=O [VIII, [Lys^ε(C8)]^8KR12-NH2] (H-KRIVQRIK(Octanoyl)DFLR-NH2) | 32 µg/mL (≈ 18.9 µM) | 16 µg/mL (≈ 9.43 µM) | 32 µg/mL (≈ 18.9 µM) | 32 µg/mL (≈ 18.9 µM) | 4 µg/mL (≈ 2.36 µM) | 64 µg/mL | 32 µg/mL (≈ 18.9 µM) | 8 µg/mL (≈ 4.71 µM) | 64 µg/mL (≈ 37.7 µM) | 32 µg/mL (≈ 18.9 µM) | 8 µg/mL (≈ 4.71 µM) | – | –
CCCC(=O)NCCCC[C@H](NC(=O)CCC)C(=O)N[C@@H](CCCNC(=N)N)C(=O)N[C@H](C(=O)N[C@H](C(=O)N[C@@H](CCC(N)=O)C(=O)N[C@@H](CCCNC(=N)N)C(=O)N[C@H](C(=O)N[C@@H](CCCCN)C(=O)N[C@@H](CC(=O)O)C(=O)N[C@@H](Cc1ccccc1)C(=O)N[C@@H](CC(C)C)C(=O)N[C@@H](CCCNC(=N)N)C(N)=O)[C@@H](C)CC)C(C)C)[C@@H](C)CC [X, C4^α, C4^ε-KR12-NH2] (Butyryl-K(Butyryl)RIVQRIKDFLR-NH2) | 512 µg/mL (≈ 299 µM) | 256 µg/mL (≈ 150 µM) | 128 µg/mL (≈ 74.8 µM) | 512 µg/mL (≈ 299 µM) | 32 µg/mL (≈ 18.7 µM) | – | 256 µg/mL (≈ 150 µM) | 32 µg/mL (≈ 18.7 µM) | >512 µg/mL | 512 µg/mL (≈ 299 µM) | 128 µg/mL (≈ 74.8 µM) | did not induce any significant hemolysis (>5%) | –
CCCCCCCC(=O)N[C@@H](CCCNC(=N)N)C(=O)N[C@@H](CC(C)C)C(=O)N[C@@H](Cc1ccccc1)C(=O)N[C@@H](CC(=O)O)C(=O)N[C@@H](CCCCN)C(=O)N[C@H](C(=O)N[C@@H](CCCNC(=N)N)C(=O)N[C@@H](CCC(N)=O)C(=O)N[C@H](C(=O)N[C@H](C(=O)N[C@@H](CCCNC(=N)N)C(=O)N[C@@H](CCCCN)C(N)=O)[C@@H](C)CC)C(C)C)[C@@H](C)CC [XII, C8^α-retro-KR12-NH2] (Octanoyl-RLFDKIRQVIRK-NH2) | 32 µg/mL (≈ 18.9 µM) | 32 µg/mL (≈ 18.9 µM) | 32 µg/mL (≈ 18.9 µM) | 32 µg/mL (≈ 18.9 µM) | 8 µg/mL (≈ 4.71 µM) | ≥512 µg/mL | 256 µg/mL (≈ 151 µM) | 8 µg/mL (≈ 4.71 µM) | 64 µg/mL (≈ 37.7 µM) | 128 µg/mL (≈ 75.4 µM) | 64 µg/mL (≈ 37.7 µM) | – | –
CCCCCCC(CCCC)C(=O)N[C@@H](CCCCN)C(=O)N[C@@H](CCCNC(=N)N)C(=O)N[C@H](C(=O)N[C@H](C(=O)N[C@@H](CCC(N)=O)C(=O)N[C@@H](CCCNC(=N)N)C(=O)N[C@H](C(=O)N[C@@H](CCCCN)C(=O)N[C@@H](CC(=O)O)C(=O)N[C@@H](Cc1ccccc1)C(=O)N[C@@H](CC(C)C)C(=O)N[C@@H](CCCNC(=N)N)C(N)=O)[C@@H](C)CC)C(C)C)[C@@H](C)CC (stereo partly drawn) [XIII, 2-Buthyloctanoic acid-KR12-NH2] (X1-KRIVQRIKDFLR-NH2) | 4 µg/mL (≈ 2.28 µM) | 2 µg/mL (≈ 1.14 µM) | 8 µg/mL (≈ 4.56 µM) | 4 µg/mL (≈ 2.28 µM) | 32 µg/mL (≈ 18.3 µM) | – | 8 µg/mL (≈ 4.56 µM) | 2 µg/mL (≈ 1.14 µM) | 32 µg/mL (≈ 18.3 µM) | 8 µg/mL (≈ 4.56 µM) | 4 µg/mL (≈ 2.28 µM) | – | 8 µg/mL and 16 ^a µg/mL
CCCCC(CC)C(=O)N[C@@H](CCCCN)C(=O)N[C@@H](CCCNC(=N)N)C(=O)N[C@H](C(=O)N[C@H](C(=O)N[C@@H](CCC(N)=O)C(=O)N[C@@H](CCCNC(=N)N)C(=O)N[C@H](C(=O)N[C@@H](CCCCN)C(=O)N[C@@H](CC(=O)O)C(=O)N[C@@H](Cc1ccccc1)C(=O)N[C@@H](CC(C)C)C(=O)N[C@@H](CCCNC(=N)N)C(N)=O)[C@@H](C)CC)C(C)C)[C@@H](C)CC (stereo partly drawn) [XIV, 2-Ethylhexanoic acid-KR12-NH2] (X3-KRIVQRIKDFLR-NH2) | 32 µg/mL (≈ 18.9 µM) | 32 µg/mL (≈ 18.9 µM) | 64 µg/mL (≈ 37.7 µM) | 16 µg/mL (≈ 9.43 µM) | 16 µg/mL (≈ 9.43 µM) | – | 16 µg/mL (≈ 9.43 µM) | 4 µg/mL (≈ 2.36 µM) | 128 µg/mL (≈ 75.4 µM) | 16 µg/mL (≈ 9.43 µM) | 16 µg/mL (≈ 9.43 µM) | – | 256 ^a µg/mL
CC[C@H](C)[C@H](NC(=O)[C@H](CCCNC(=N)N)NC(=O)[C@H](CCC(N)=O)NC(=O)[C@@H](NC(=O)[C@@H](NC(=O)[C@H](CCCNC(=N)N)NC(=O)[C@H](CCCCN)NC(=O)/C=C/c1ccccc1)[C@@H](C)CC)C(C)C)C(=O)N[C@@H](CCCCN)C(=O)N[C@@H](CC(=O)O)C(=O)N[C@@H](Cc1ccccc1)C(=O)N[C@@H](CC(C)C)C(=O)N[C@@H](CCCNC(=N)N)C(N)=O [XIX, trans-cinnamic acid-KR12-NH2] (X4-KRIVQRIKDFLR-NH2) | 16 µg/mL (≈ 9.41 µM) | 4 µg/mL (≈ 2.35 µM) | 16 µg/mL (≈ 9.41 µM) | 8 µg/mL (≈ 4.7 µM) | 16 µg/mL (≈ 9.41 µM) | – | 16 µg/mL (≈ 9.41 µM) | 4 µg/mL (≈ 2.35 µM) | 32 µg/mL (≈ 18.8 µM) | 16 µg/mL (≈ 9.41 µM) | 8 µg/mL (≈ 4.7 µM) | – | 128 ^a µg/mL
